Key:
[1] = in vivo; cited from earlier work
[2] = BPD-MA biodistribution by LIFS, Study #1; set-up: species or system male Lobund-Wistar rats; conditions: rat, in vivo, iv, 0.5 mg/kg
[3] = after excitation by blue light; cited from earlier work
[4] = BPD-MA biodistribution by LIFS, Study #1; type: in vivo, male Lobund-Wistar rats; conditions: for I(690 nm)/I(540 nm), kidney / I(690 nm)/I(540 nm), large bowel / I(690 nm)/I(540 nm), liver / I(690 nm)/I(540 nm), mesenteric lymph nodes (MCLN) / I(690 nm)/I(540 nm), metast. L. node / I(690 nm)/I(540 nm), muscle / I(690 nm)/I(540 nm), non-met L. node / I(690 nm)/I(540 nm), skin / I(690 nm)/I(540 nm), small bowel: mean ± SD
From the text: (§1) The experimental arrangement used to measure the fluorescence spectra during abdominal exploration included a Helium-cadmium laser (Omnichrome, Chino, Calif.) operating at 442 nm as an excitation source. A 400 micron core diameter fiber was directed at the tissue in contact mode producing a low power (17 mW) illumination. Using the same fiber, reflected and emitted light was returned to the input of a SPEX 500 spectrometer (1422 G EG&G).
(§2) Laser output was reflected at a right angle by a dichroic mirror (HR/442 nm-H7>500 nm, CVI, New Mexico) and was focused at the input of a 400 micron core diameter fiberoptic probe. The excitation output of the laser at the distal end of the fiber was 17 mW. Fluorescence was collected using the same fiber and was transmitted through the dichroic beamsplitter and guided via a fiber bundle to a 0.5 spectrograph (100 g/mm diffraction grating with a split width of 50 microns). The light was then imaged at the modified output port. A 1024 element linear diode array detector (EG&G 1422G) was attached to the exit port, and the signal was directed to a multichannel intensifier. A longpass glass filter (Schott GG475) was used to exclude the excitation light from the detector and conversions were made by an analog to digital converter and automatically stored by a computer. […] Background spectra were recorded before excitation and subtracted from the resulting data. The detection system, including the detector attenuation filter, lenses and spectrograph, was not altered or corrected for a uniform spectral response.
(§3) Spectra from the surfaces of tumor (T), skin (S), muscle (M), liver (L), kidney (K), spleen (Sp), stomach (St), small bowel (SB) and large bowel (LB) were acquired and analyzed by the OMA. […] (FIG. 1 is a schematic representation of this experimental arrangement.) A series of spectra for Photofrin and BPD-MA were recorded from photosensitized animals. (FIGS. 2 and 3). The fluorescence intensities at 540 nm (auto-fluorescence) and 630 nm (Photofrin) or 690 nm (BPD-MA) were simultaneously monitored at three sites for each organ. By using the ratio of these intensities, (I630 nm /I540 nm) or (I690 nm /540 nm), a relative value could be assigned to each area studied. In addition, this intensity ratio eliminated any geometric factor (fiber position) influence in the calibration, as well as calibration errors. The corresponding intensity ratios were used as an index for drug presence in the various tissues.
(§4) The fluorescence emitted from cancerous and normal tissues of male Lobund-Wistar rats was investigated (Lobund Laboratory, Notre Dame University, Id.). All tumors were subcutaneously implanted by inoculating 10^5 viable cells of Pollard rat prostatic adenocarcinoma (PA-III) into the right flank of each animal. This tumor model was selected because it is known to metastasize uniformly and spontaneously from extravascular sites only through ipsilateral lymphatic channels. Because of this tumor's unique, predictable spread, the contralateral side of the animal could be used as a control. In addition, cancer detection is facilitated with this model because rats with PA-III cells survive beyond forty days after implantation without evidence of physical impairment.
(§5) Two separate experiments were performed to assess the biodistribution of BPD-MA. The first study involved 21 animals and two doses of BPD-MA, 0.25 mg/kg and 0.50 mg/kg, to determine the concentration effect of BPD-MA in various tissues. The second study involved 81 animals and 0.75 mg/kg of BPD-MA to determine the biodistribution of BPD-MA and the sensitivity and specificity of LIFS biodistribution measurements.
BPD-MA (QLT Phototherapeutics, Inc., Vancouver, Canada) was administered to 21 animals intravenously. The animals were divided into three groups of seven animals each and injected with two different doses of BPD-MA, 0.25 mg/kg (n=7) and 0.50 mg/kg (n=7) 4-6 hours prior to surgical exploration. Seven animals served as a control. […]

[5] = set-up: species or system male Lobund-Wistar rats; conditions: rat, in vivo, iv, 0.75 mg/kg
From the text: as §1, §2, §3, §4, §5
BPD-MA (QLT Phototherapeutics, Inc., Vancouver, Canada) was administered intravenously in a dose of 0.75 mg/kg to 81 animals 4 hours prior to surgical exploration.
As in Study #1, the animals were anesthetized with Ketamine 40 mg/kg and Xylazine 5.0 mg/kg intraperitoneally, and the abdomens opened through a midline incision. […]

[6] = Photofrin biodistribution by laser induced fluorescence spectroscopy (LIFS); type: in vivo, male Lobund-Wistar rats
From the text: as §1, §2, §3, §4
After forty-two days of observation, Photofrin (QLT Phototherapeutics, Inc., Vancouver, Canada) was administered intraperitoneally to forty-one animals 24-48 hours prior to surgical exploration in doses ranging from 0.25-7.5 mg/kg. Six animals were injected 24 hours prior to surgical exploration with 0.75 mg/kg of Photofrin. Thirty animals were injected with six different concentrations of Photofrin 48 hours prior to surgical exploration (7.5 mg/kg (n=5), 2.5 mg/kg (n=4), 1.5 mg/kg (n=3), 0.75 mg/kg (n=11), 0.50 mg/kg (n=4), and 0.25 mg/kg (n=3)). Five animals which had not been inoculated with PA-III were injected with 0.75 mg/kg 48 hours prior to surgical exploration, and served as a control. […]

[7] = Absorption / fluorescence of the photosensitizer; type: physicochemical; conditions: 442 nm excitation
From the text: as §1
Laser output was reflected at a right angle by a dichroic mirror (HR/442 nm-H7>500 nm, CVI, New Mexico) and was focused at the input of a 400 micron core diameter fiberoptic probe. The excitation output of the laser at the distal end of the fiber was 17 mW. Fluorescence was collected using the same fiber and was transmitted through the dichroic beamsplitter and guided via a fiber bundle to a 0.5 spectrograph (100 g/mm diffraction grating with a split width of 50 microns). […] Background spectra were recorded before excitation and subtracted from the resulting data. […]
Spectra from the surfaces of tumor (T), skin (S), muscle (M), liver (L), kidney (K), spleen (Sp), stomach (St), small bowel (SB) and large bowel (LB) were acquired and analyzed by the OMA. […] (FIG. 1 is a schematic representation of this experimental arrangement.) A series of spectra for Photofrin and BPD-MA were recorded from photosensitized animals. […]

[8] = 1.5 mg/kg i.p., 48 h, PA-III rats, mean ± SD
[9] = 2.5 mg/kg i.p., 48 h, PA-III rats, mean ± SD
[10] = 7.5 mg/kg i.p., 48 h, PA-III rats, mean ± SD

Benzoporphyrin derivative monoacid-A [BPD-MA]
Photosensitivity of the skin [1]: dramatically decreased photosensitivity of the skin
Fluorescence intensity ratio (I630 nm/I540 nm), metastatic tissue [2]: 6.73 ± 2.39
Characteristic red fluorescence peak [3]: approximately 690 nm
I(690 nm)/I(540 nm), kidney ([4]; 4 Hours, 0.25 mg/kg i.v.): 1.04 ± 0.40
I(690 nm)/I(540 nm), large bowel ([4]; 4 Hours, 0.25 mg/kg i.v.): 1.27 ± 0.30
I(690 nm)/I(540 nm), liver ([4]; 4 Hours, 0.25 mg/kg i.v.): 7.83 ± 3.69
I(690 nm)/I(540 nm), mesenteric lymph nodes (MCLN) ([4]; 4 Hours, 0.25 mg/kg i.v.): 1.40 ± 0.27
I(690 nm)/I(540 nm), metast. L. node ([4]; 4 Hours, 0.25 mg/kg i.v.): 3.19 ± 2.31
I(690 nm)/I(540 nm), muscle ([4]; 4 Hours, 0.25 mg/kg i.v.): 1.73 ± 0.47
I(690 nm)/I(540 nm), non-met L. node ([4]; 4 Hours, 0.25 mg/kg i.v.): 3.55 ± 1.77
I(690 nm)/I(540 nm), skin ([4]; 4 Hours, 0.25 mg/kg i.v.): 0.31 ± 0.12
I(690 nm)/I(540 nm), small bowel ([4]; 4 Hours, 0.25 mg/kg i.v.): 7.63 ± 2.73
I(690 nm)/I(540 nm), kidney ([4]; 4 Hours, 0.50 mg/kg i.v.): 1.57 ± 0.32
I(690 nm)/I(540 nm), large bowel ([4]; 4 Hours, 0.50 mg/kg i.v.): 1.59 ± 0.45
I(690 nm)/I(540 nm), liver ([4]; 4 Hours, 0.50 mg/kg i.v.): 15.74 ± 9.25
I(690 nm)/I(540 nm), mesenteric lymph nodes (MCLN) ([4]; 4 Hours, 0.50 mg/kg i.v.): 3.12 ± 0.99
I(690 nm)/I(540 nm), metast. L. node ([4]; 4 Hours, 0.50 mg/kg i.v.): 6.73 ± 2.39
I(690 nm)/I(540 nm), muscle ([4]; 4 Hours, 0.50 mg/kg i.v.): 1.62 ± 0.82
I(690 nm)/I(540 nm), non-met L. node ([4]; 4 Hours, 0.50 mg/kg i.v.): 2.65 ± 0.62
I(690 nm)/I(540 nm), skin ([4]; 4 Hours, 0.50 mg/kg i.v.): 0.50 ± 0.17
I(690 nm)/I(540 nm), small bowel ([4]; 4 Hours, 0.50 mg/kg i.v.): 9.91 ± 5.08
I(690 nm)/I(540 nm), kidney ([4]; 6 Hours, 0.25 mg/kg i.v.): 0.78 ± 0.19
I(690 nm)/I(540 nm), large bowel ([4]; 6 Hours, 0.25 mg/kg i.v.): 2.37 ± 1.48
I(690 nm)/I(540 nm), liver ([4]; 6 Hours, 0.25 mg/kg i.v.): 5.20 ± 2.38
I(690 nm)/I(540 nm), mesenteric lymph nodes (MCLN) ([4]; 6 Hours, 0.25 mg/kg i.v.): 1.43 ± 0.67
I(690 nm)/I(540 nm), metast. L. node ([4]; 6 Hours, 0.25 mg/kg i.v.): 3.70 ± 2.82
I(690 nm)/I(540 nm), muscle ([4]; 6 Hours, 0.25 mg/kg i.v.): 0.78 ± 0.26
I(690 nm)/I(540 nm), non-met L. node ([4]; 6 Hours, 0.25 mg/kg i.v.): 2.77 ± 2.25
I(690 nm)/I(540 nm), skin ([4]; 6 Hours, 0.25 mg/kg i.v.): 0.30 ± 0.15
I(690 nm)/I(540 nm), small bowel ([4]; 6 Hours, 0.25 mg/kg i.v.): 4.98 ± 2.83
BPD-MA retention in organs with time ([4]; rat, in vivo, iv): BPD-MA retention in all organs decreased with time
Fluorescence intensity ratio (I630 nm/I540 nm), non-metastatic tissue ([4]; rat, in vivo, iv, 0.5 mg/kg): 2.65 ± 0.62
I(690 nm)/I(540 nm), spleen ([4]; rat, in vivo, iv, 0.5 mg/kg): 1.57 ± 0.31
I(690 nm)/I(540 nm), stomach ([4]; rat, in vivo, iv, 0.5 mg/kg): 2.95 ± 1.10
I(690 nm)/I(540 nm), tumor ([4]; rat, in vivo, iv, 0.5 mg/kg): 3.44 ± 1.14
Fluorescence intensity ratio mean, Left Iliac LN (LILN) [5]: 5.22
Fluorescence intensity ratio mean, Mesenteric I LN (MC I) [5]: 2.45
Fluorescence intensity ratio mean, Mesenteric II LN (MC II) [5]: 2.37
Fluorescence intensity ratio mean, Right Iliac LN (RILN) [5]: 5.86
Fluorescence intensity ratio mean, Right Inguinal LN (RIN) [5]: 4.72
Fluorescence intensity ratio mean, Right Para-Aortic LN (RPAR) [5]: 7.40
Fluorescence intensity ratio mean, Right Sub-Renalis LN (RSBR) [5]: 4.50
Fluorescence intensity ratio mean, Right Supra-Renalis LN (RSPR) [5]: 4.26
Fluorescence intensity ratio mean, inflammatory LN [5]: 3.67
Fluorescence intensity ratio mean, metastatic LN [5]: 6.26
Fluorescence intensity ratio mean, normal LN [5]: 3.06

Photofrin
Fluorescence intensity ratio (I630 nm/I540 nm), skin [6, 8]: 0.23 ± 0.06
Fluorescence intensity ratio (I630 nm/I540 nm), small bowel [6, 8]: 0.56 ± 0.08
Fluorescence intensity ratio (I630 nm/I540 nm), spleen [6, 8]: 1.25 ± 0.35
Fluorescence intensity ratio (I630 nm/I540 nm), stomach [6, 8]: 0.92 ± 0.12
Fluorescence intensity ratio (I630 nm/I540 nm), tumor [6, 8]: 0.36 ± 0.01
Fluorescence intensity ratio (I630 nm/I540 nm), non metas L. node [6, 9]: 1.75 ± 1.06
Fluorescence intensity ratio (I630 nm/I540 nm), skin [6, 9]: 0.22 ± 0.04
Fluorescence intensity ratio (I630 nm/I540 nm), small bowel [6, 9]: 0.57 ± 0.30
Fluorescence intensity ratio (I630 nm/I540 nm), spleen [6, 9]: 0.72 ± 0.25
Fluorescence intensity ratio (I630 nm/I540 nm), stomach [6, 9]: 0.26 ± 0.01
Fluorescence intensity ratio (I630 nm/I540 nm), tumor [6, 9]: 0.70 ± 0.43
Fluorescence intensity ratio (I630 nm/I540 nm), skin [6, 10]: 0.25 ± 0.04
Fluorescence intensity ratio (I630 nm/I540 nm), small bowel [6, 10]: 0.96 ± 0.33
Fluorescence intensity ratio (I630 nm/I540 nm), spleen [6, 10]: 1.56 ± 0.68
Fluorescence intensity ratio (I630 nm/I540 nm), stomach [6, 10]: 0.62 ± 0.24
Fluorescence intensity ratio (I630 nm/I540 nm), tumor [6, 10]: 2.45 ± 1.00
Dose at which metastatic and non-metastatic lymph nodes are distinguished (selectivity) ([6]; rat, in vivo, 2880 min): higher than 0.25 mg/kg
Characteristic fluorescence peak [7]: ~ 630 nm
